Results taken from patent publication US12227743B2, “Pharmaceutical composition for treatment of diseases associated with upregulated periostin expression or periostin splice variant switching” (Osaka University, priority 2018, dated 2025).

What was measured:
[1] = system: human breast cancer cell line BT549; test: MTS assay (number of viable cells) in transfected BT549 cells with or without paclitaxel; assay type: cell-based; conditions: 72 hours
Experimental: (§1) Periostin-highly-expressing human breast cancer cell line BT549 was cultured in RPMI 1640 with 10% FBS and 1% penicillin/streptomycin. The BT549 cells are a triple-negative breast cancer cell line, which is negative for estrogen receptor, progesterone receptor, and human epidermal growth factor receptor 2 (HER2).
(§2) The BT549 cells were transfected with the human exon 17-skipping antisense oligonucleotide or the human exon 21-skipping antisense oligonucleotide as described in Example 1. The cells were subsequently seeded in an amount of 5×10^3 cells/well on a 96-well plate. Similarly, the BT549 cells were transfected with the control antisense oligonucleotide and seeded on a 96-well plate as the control group. On the day after seeding, paclitaxel was added at a final concentration of 10 nM to the wells. After 72 hours of culture, cell proliferation (number of viable cells) and ATP-producing capacity (ATP quantification) were evaluated. The number of viable cells was measured using the CellTiter 96 AQueous One Solution Cell Proliferation Assay (trade name, Promega, #G3582) (MTS assay). The amount of ATP was measured using the CellTiter-Glo Luminescent Cell Viability Assay (trade name, Promega, #G7570) (ATP assay). The Tukey-Kramer test was used for intergroup comparison.

[2] = system: human breast cancer cell line BT549; test: ATP assay (CellTiter-Glo, ATP production) in transfected BT549 cells with or without paclitaxel; assay type: cell-based; conditions: 72 hours
Experimental: as §1, §2

[3] = system: downstream molecules of TGF-β-induced signaling; test: Quantitative PCR of downstream molecules of TGF-β-induced signaling in hRPTEC transfected with antisense oligonucleotide; assay type: cell-based, human; conditions: vs TGF-β (+) Control AS, FIG. 15
Experimental: Human renal proximal tubular epithelial cells (hRPTEC, ATCC No. PCS-400-010) were cultured in a renal epithelial cell basal medium (REBM, Cambrex Bio Science Inc.) with 10% fetal bovine serum (FBS) and 1% penicillin/streptomycin. The cells were transfected with the human exon 17-skipping antisense oligonucleotide (Pn exon 17 AS) or the control antisense oligonucleotide (Control AS) as described in Example 1. At 24 hours after transfection, the medium was replaced by a serum-free medium. At 24 hours thereafter, human TGF-β1 (PeproTech) was added to the medium, and culture was continued for additional 24 hours. After cell culture, total RNA was extracted from the cells and subjected to cDNA synthesis (see Reference Example 1). The resulting cDNA was subjected to quantitative PCR using the primers shown below to measure the expression level of the splice variant Pn1 (containing exons 17 and 21, see FIG. 1) (n=3 per group) and the mRNA expression levels of the downstream molecules of TGF-β-induced signaling (αSMA, Snail 1, TNFα, CTGF, vimentin) (n=4 per group). Statistical analysis was performed by analysis of variance and Tukey-Kramer adjustment using the JMP statistical software package.

[4] = system: Luciferase-expressing mouse breast cancer (4T1-Luc) cells; test: Pulmonary metastasis (lung luciferase activity) in nude mice after tail vein injection of transfected 4T1-Luc cells; assay type: in vivo; conditions: 5×10^5 transfected 4T1-Luc cells via tail vein, 5 days after injection, vs control antisense, FIG. 16
Experimental: Luciferase-expressing mouse breast cancer (4T1-Luc) cells were cultured in DMEM with 10% FBS and 1% penicillin/streptomycin. A morpholino antisense oligonucleotide designed to induce skipping of exon 17 of a mouse periostin gene was purchased from Funakoshi Co., Ltd. The nucleotide sequence of the antisense oligonucleotide is as follows.
The mouse exon 17-skipping antisense oligonucleotide targets the region of positions 21118 to 21142 of the mouse periostin gene represented by SEQ ID NO: 2.
The 4T1-Luc cells were transfected with the mouse exon 17-skipping antisense oligonucleotide or the control antisense oligonucleotide (SEQ ID NO: 6) as described in Example 1. After 2 days of culture, the cells were detached, and cell suspension was prepared. The cell suspension (containing 5×10^5 4T1-Luc cells per mouse) was injected via the tail vein to nude mice (BALB/c-nu, female, 8 to 10 weeks old) (n=3 per group). At 5 days after injection, the lung was excised from each mouse under anesthesia and homogenized. The homogenate was subjected to the measurement of luciferase activity using the Dual-Luciferase Reporter Assay System (Promega, #E1910). The Mann Whitney test (MWU) was used for comparison between the two groups.

[5] = BT549, paclitaxel 10 nM, vs control antisense transfected cells, FIG. 17B
[6] = BT549, no paclitaxel, vs control antisense transfected cells, FIG. 18A
[7] = BT549, paclitaxel 10 nM, vs control antisense transfected cells, FIG. 18B

Substance	cell proliferation (number of viable cells, MTS) ([1]; BT549, no paclitaxel, vs exon 17-skipping and control antisense transfected cells, FIG. 17A)	cell proliferation (number of viable cells, MTS) [1, 5]	ATP production [2, 6]	ATP production ([2]; BT549, no paclitaxel, vs exon 17-skipping antisense transfected cells, FIG. 18A)	ATP production [2, 7]	ATP production ([2]; BT549, paclitaxel 10 nM, vs exon 17-skipping antisense transfected cells, FIG. 18B)	CTGF mRNA expression, TGF-β induction [3]	Snail 1 mRNA expression, TGF-β induction [3]	TNFα mRNA expression, TGF-β induction [3]	Vimentin mRNA expression, TGF-β induction [3]	αSMA mRNA expression, TGF-β induction [3]	luciferase activity in lung homogenate (pulmonary metastasis) [4]
exon 21-skipping antisense oligonucleotide: Morpholino antisense oligonucleotide 5′-TTGTTGTCCTTTTACTAACCTCCCT-3′ designed to induce skipping of exon 21 of a human periostin gene (all phosphorodiamidate morpholino (PMO))	significant reduction	significant reduction	significant reduction	significant reduction	significant reduction	significant reduction						
exon 17-skipping antisense oligonucleotide: Morpholino antisense oligonucleotide 5′-CCATGTATAACATTGATTTTTACCTTCAGT-3′ designed to induce skipping of exon 17 of a human periostin gene (all phosphorodiamidate morpholino (PMO))		significant reduction	significant reduction		significant reduction		significantly suppressed	significantly suppressed	significantly suppressed	significantly suppressed	significantly suppressed	
mouse exon 17-skipping antisense oligonucleotide: Morpholino antisense oligonucleotide 5′-TGCTGAAAACATAGAAAGTGGAGCA-3′ designed to induce skipping of exon 17 of a mouse periostin gene (all phosphorodiamidate morpholino (PMO))												very low
